Assay results as given in BindingDB's records for doi:10.1021/acsmedchemlett.4c00023 (n/a, 2024).
pIC50: −log10 of the molar value.

Each compound was assayed against Mitogen-activated protein kinase kinase kinase kinase 1 (Homo sapiens, UniProt Q92918) (assay: Inhibition of full length recombinant human N-terminal GST-tagged HPK1 expressed in baculovirus infected Sf21 insect cells preincubated for 15 mins followed by MBP and ATP addition measured after 120 mins by ADP-Glo reagent based assay).
Sequence of Mitogen-activated protein kinase kinase kinase kinase 1 (Q92918 whole entry): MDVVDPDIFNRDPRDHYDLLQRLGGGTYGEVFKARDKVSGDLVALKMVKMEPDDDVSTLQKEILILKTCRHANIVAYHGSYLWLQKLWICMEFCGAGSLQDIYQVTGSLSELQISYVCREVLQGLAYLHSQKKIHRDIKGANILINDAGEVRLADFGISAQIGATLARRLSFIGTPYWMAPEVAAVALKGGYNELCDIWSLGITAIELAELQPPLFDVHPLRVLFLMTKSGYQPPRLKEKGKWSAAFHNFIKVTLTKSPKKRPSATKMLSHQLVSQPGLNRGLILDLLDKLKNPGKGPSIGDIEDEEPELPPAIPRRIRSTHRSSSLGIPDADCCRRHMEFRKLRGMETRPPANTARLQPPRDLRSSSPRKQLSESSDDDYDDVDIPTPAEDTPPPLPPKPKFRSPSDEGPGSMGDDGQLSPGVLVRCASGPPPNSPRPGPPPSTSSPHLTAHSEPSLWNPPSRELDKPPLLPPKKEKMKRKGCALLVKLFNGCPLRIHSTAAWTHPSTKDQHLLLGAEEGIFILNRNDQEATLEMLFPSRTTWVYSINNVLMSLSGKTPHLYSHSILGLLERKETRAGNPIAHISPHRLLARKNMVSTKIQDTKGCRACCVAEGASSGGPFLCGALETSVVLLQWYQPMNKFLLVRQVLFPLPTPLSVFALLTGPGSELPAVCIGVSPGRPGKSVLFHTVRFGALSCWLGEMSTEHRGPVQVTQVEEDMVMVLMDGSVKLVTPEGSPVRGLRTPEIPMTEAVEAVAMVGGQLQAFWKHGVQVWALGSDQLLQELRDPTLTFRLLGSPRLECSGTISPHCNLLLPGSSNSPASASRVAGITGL

SMILES	pIC50
COC1CCN(c2ccc(Nc3ncc4c(n3)CN(c3cnc5c(c3C)NCCO5)CC4)cc2)CC1 [US20240025922, Example 113]	> 7.00
Cc1c(N2CCc3cnc(Nc4ccc5c(c4)CCOC5)nc3C2)cnc2c1NCCO2 [US20240025922, Example 84]	> 7.00
Cc1c(N2CCc3cnc(Nc4ccc(N5CCN(C)CC5)cc4)nc3C2)cnc2c1NCCO2 [US20240025922, Example 55]	> 7.00

Second part, the compound after the results:

pIC50	SMILES
> 7.00	Cc1c(N2CCc3cnc(Nc4ccc(Cn5nccn5)cc4)nc3C2)cnc2c1NCCO2 [US20240025922, Example 185]
> 7.00	CCc1c(N2CCc3cnc(Nc4ccc(CS(C)(=O)=O)cc4)nc3C2)cnc2c1NCCO2 [US20240025922, Example 145]
> 7.00	Cc1c(N2CCc3cnc(Nc4ccc(Cn5cccn5)cc4)nc3C2)cnc2c1NCCO2 [US20240025922, Example 187]
